Reference: the supplement of paper PMC11061612

Experiments:
SN-38 = compound: CCc1c2c(nc3ccc(O)cc13)-c1cc3c(c(=O)n1C2)COC(=O)[C@]3(O)CC [SN-38]; details: max 0.3 µM
How it was run: (§1)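 Cancer cell lines were seeded into 1536-well plates in 7.5 μl medium (DMEM/F12 or RPMI, 10% FBS), held 24 hours at 37°C and 5% CO2, and dosed for 72 hours with final DMSO typically 0.2%. Luminescence from CellTiter-Glo 2.0, scaled between blank-well and DMSO-well means, served as viability. The single-agent IC50 was obtained from dose-response fits with a non-linear mixed effects model, each fit being a two-parameter logistic curve.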

Palbociclib = compound: CC(=O)c1c(C)c2cnc(Nc3ccc(N4CCNCC4)cn3)nc2n(C2CCCC2)c1=O [Palbociclib]; details: max 10 µM
How it was run: as §1

Venetoclax = compound: CC1(C)CCC(CN2CCN(c3ccc(C(=O)NS(=O)(=O)c4ccc(NCC5CCOCC5)c([N+](=O)[O-])c4)c(Oc4cnc5[nH]ccc5c4)c3)CC2)=C(c2ccc(Cl)cc2)C1 [Venetoclax]; details: max 1 µM
How it was run: as §1

Selumetinib = compound: Cn1cnc2c(F)c(Nc3ccc(Br)cc3Cl)c(C(=O)NOCCO)cc21 [Selumetinib]; details: max 10 µM
How it was run: as §1

AZD1775 = compound: C=CCn1c(=O)c2cnc(Nc3ccc(N4CCN(C)CC4)cc3)nc2n1-c1cccc(C(C)(C)O)n1 [AZD1775]; details: max 3 µM
How it was run: as §1

AZD1390 = compound: CC(C)n1c(=O)n(C)c2cnc3cc(F)c(-c4ccc(OCCCN5CCCCC5)nc4)cc3c21 [AZD1390]; details: max 0.3 µM
How it was run: as §1

Crizotinib = compound: C[C@@H](Oc1cc(-c2cnn(C3CCNCC3)c2)cnc1N)c1c(Cl)ccc(F)c1Cl [Crizotinib]; details: max 10 µM
How it was run: as §1

Savolitinib = compound: C[C@@H](c1ccc2nccn2c1)n1nnc2ncc(-c3cnn(C)c3)nc21 [Savolitinib]; details: max 1 µM
How it was run: as §1

SG3199 = compound: CC1=CN2[C@@H](C1)C=NC3=CC(=C(C=C3C2=O)OC)OCCCCCOC4=C(C=C5C(=C4)N=C[C@@H]6CC(=CN6C5=O)C)OC [SG3199]; details: max 0.001 µM
How it was run: as §1

AZD5991 = compound: Cc1c2c(nn1C)CSCc1cc(n(C)n1)CSc1cc(c3ccccc3c1)OCCCc1c(C(=O)O)n(C)c3c-2c(Cl)ccc13 [AZD5991]; details: max 1 µM
How it was run: as §1

Trametinib = compound: CC(=O)Nc1cccc(-n2c(=O)n(C3CC3)c(=O)c3c(Nc4ccc(I)cc4F)n(C)c(=O)c(C)c32)c1 [Trametinib]; details: max 1 µM
How it was run: as §1

Lapatinib = compound: CS(=O)(=O)CCNCc1ccc(-c2ccc3ncnc(Nc4ccc(OCc5cccc(F)c5)c(Cl)c4)c3c2)o1 [Lapatinib]; details: max 10 µM
How it was run: as §1

AZD6738 = compound: C[C@@H]1COCCN1C2=NC(=NC(=C2)C3(CC3)[S@](=N)(=O)C)C4=C5C=CNC5=NC=C4 [AZD6738]; details: max 10 µM
How it was run: as §1

Olaparib = compound: O=C(c1cc(Cc2n[nH]c(=O)c3ccccc23)ccc1F)N1CCN(C(=O)C2CC2)CC1 [Olaparib]; details: max 10 µM
How it was run: as §1

Prexasertib = compound: COc1cccc(OCCCN)c1-c1cc(Nc2cnc(C#N)cn2)n[nH]1 [Prexasertib]; details: max 1 µM
How it was run: as §1

Gefitinib = compound: COc1cc2ncnc(Nc3ccc(F)c(Cl)c3)c2cc1OCCCN1CCOCC1 [Gefitinib]; details: max 10 µM
How it was run: as §1

Capivasertib = compound: C1CN(CCC1(C(=O)N[C@@H](CCO)C2=CC=C(C=C2)Cl)N)C3=NC=NC4=C3C=CN4 [Capivasertib]; details: max 10 µM
How it was run: as §1

AZD2811 = compound: CCN(CCO)CCCOc1ccc2c(Nc3cc(CC(=O)Nc4cccc(F)c4)[nH]n3)ncnc2c1 [AZD2811]; details: max 1 µM
How it was run: as §1

AZD0156 = compound: CN(C)CCCOc1ccc(-c2ccc3ncc4c(c3c2)n(C2CCOCC2)c(=O)n4C)cn1 [AZD0156]; details: max 3 µM
How it was run: as §1

AZD5153 = compound: COc1nnc2ccc(N3CCC(c4ccc(OCCN5CCN(C)C(=O)[C@H]5C)cc4)CC3)nn12 [AZD5153]; details: max 1 µM
How it was run: as §1

Taselisib = compound: Cc1nc(-c2cn3c(n2)-c2ccc(-c4cnn(C(C)(C)C(N)=O)c4)cc2OCC3)n(C(C)C)n1 [Taselisib]; details: max 10 µM
How it was run: as §1

Dasatinib = compound: CC1=C(C(=CC=C1)Cl)NC(=O)C2=CN=C(S2)NC3=CC(=NC(=N3)C)N4CCN(CC4)CCO [Dasatinib]; details: max 2 µM
How it was run: as §1

AZD7648 = compound: Cc1cc2ncnn2cc1Nc1ncc2c(n1)n(C1CCOCC1)c(=O)n2C [AZD7648]; details: max 10 µM
How it was run: as §1

AZD4320 = compound: CN(CC[C@H](CSC1=CC=CC=C1)NC2=C(C=C(C=C2)S(=O)(=O)NC(=O)C3=CC=C(C=C3)N4CCC(CC4)[C@H](C5=CC=CC=C5C6=CC=C(C=C6)Cl)O)S(=O)(=O)C(F)(F)F)CCO [AZD4320]; details: max 1 µM
How it was run: as §1

AZD8186 = compound: C[C@@H](Nc1cc(F)cc(F)c1)c1cc(C(=O)N(C)C)cc2c(=O)cc(N3CCOCC3)oc12 [AZD8186]; details: max 3 µM
How it was run: as §1

Alisertib = compound: COc1cc(Nc2ncc3c(n2)-c2ccc(Cl)cc2C(c2c(F)cccc2OC)=NC3)ccc1C(=O)O [Alisertib]; details: max 10 µM
How it was run: as §1

Doxorubicin = compound: COc1cccc2c1C(=O)c1c(O)c3c(c(O)c1C2=O)C[C@@](O)(C(=O)CO)C[C@@H]3O[C@H]1C[C@H](N)[C@H](O)[C@H](C)O1 [Doxorubicin]; details: max 1 µM
How it was run: as §1

MK-2206 = compound: NC1(c2ccc(-c3nc4ccn5c(=O)[nH]nc5c4cc3-c3ccccc3)cc2)CCC1 [MK-2206]; details: max 10 µM
How it was run: as §1

Row | Cell Line | IC50, cell viability 72 h (SN-38) [nM] | IC50, cell viability 72 h (Palbociclib) [µM] | IC50, cell viability 72 h (Venetoclax) [nM] | IC50, cell viability 72 h (Selumetinib) [µM] | IC50, cell viability 72 h (AZD1775) [nM] | IC50, cell viability 72 h (AZD1390) [nM] | IC50, cell viability 72 h (Crizotinib) [µM] | IC50, cell viability 72 h (Savolitinib) [nM] | IC50, cell viability 72 h (SG3199) [nM] | IC50, cell viability 72 h (AZD5991) [nM] | IC50, cell viability 72 h (Trametinib) [nM] | IC50, cell viability 72 h (Lapatinib) [µM] | IC50, cell viability 72 h (AZD6738) [nM] | IC50, cell viability 72 h (Olaparib) [µM] | IC50, cell viability 72 h (Prexasertib) [nM] | IC50, cell viability 72 h (Gefitinib) [µM] | IC50, cell viability 72 h (Capivasertib) [µM] | IC50, cell viability 72 h (AZD2811) [nM] | IC50, cell viability 72 h (AZD0156) [nM] | IC50, cell viability 72 h (AZD5153) [nM] | IC50, cell viability 72 h (Taselisib) [µM] | IC50, cell viability 72 h (Dasatinib) [nM] | IC50, cell viability 72 h (AZD7648) [µM] | IC50, cell viability 72 h (AZD4320) [nM] | IC50, cell viability 72 h (AZD8186) [nM] | IC50, cell viability 72 h (Alisertib) [µM] | IC50, cell viability 72 h (Doxorubicin) [nM] | IC50, cell viability 72 h (MK-2206) [µM]
1 | HuP-T3 (Pancreatic Carcinoma) | 235 | > 10 | > 1000 | > 10 | 1610 | > 300 | > 10 | > 1000 | > 1 | > 1000 | 567 | > 10 | > 10000 | > 10 | 166 | > 10 | > 10 | > 1000 | > 3000 | > 1000 | > 10 | 791 | > 10 | > 1000 | > 3000 | > 10 | > 1000 | –
2 | KYSE-50 (Esophageal Squamous Cell Carcinoma) | > 300 | > 10 | > 1000 | > 10 | 1820 | > 300 | > 10 | > 1000 | > 1 | > 1000 | > 1000 | > 10 | 8940 | > 10 | 108 | > 10 | > 10 | > 1000 | > 3000 | 664 | 8.39 | 263 | > 10 | > 1000 | > 3000 | 3.86 | > 1000 | –
3 | NCI-H1573 (Lung Adenocarcinoma) | > 300 | > 10 | > 1000 | > 10 | > 3000 | > 300 | > 10 | > 1000 | > 1 | > 1000 | 429 | > 10 | > 10000 | > 10 | 296 | > 10 | > 10 | > 1000 | > 3000 | > 1000 | > 10 | > 2000 | > 10 | > 1000 | > 3000 | > 10 | > 1000 | > 10
4 | NCI-H513 (Other Solid Carcinomas) | 210 | > 10 | > 1000 | > 10 | > 3000 | > 300 | > 10 | > 1000 | > 1 | > 1000 | 643 | > 10 | > 10000 | > 10 | > 1000 | > 10 | > 10 | > 1000 | > 3000 | > 1000 | > 10 | > 2000 | > 10 | > 1000 | > 3000 | > 10 | > 1000 | > 10
5 | NCI-H322M (Lung Adenocarcinoma) | 98.7 | > 10 | > 1000 | 2.89 | 349 | > 300 | > 10 | > 1000 | > 1 | > 1000 | 156 | 7.36 | 1130 | > 10 | 10.6 | 0.816 | > 10 | > 1000 | > 3000 | 742 | 0.692 | 1960 | > 10 | > 1000 | > 3000 | > 10 | 735 | –
6 | IMR-5 (Neuroblastoma) | 1.9 | 6.63 | > 1000 | > 10 | 498 | > 300 | 2.21 | > 1000 | > 1 | 107 | > 1000 | > 10 | 2190 | > 10 | 13.6 | > 10 | > 10 | 18.2 | > 3000 | 69.6 | > 10 | > 2000 | > 10 | 546 | > 3000 | 0.0183 | 64.9 | –
7 | KU-19-19 (Bladder Carcinoma) | 41.6 | > 10 | > 1000 | 0.678 | 462 | > 300 | > 10 | > 1000 | > 1 | > 1000 | 6.44 | > 10 | 2160 | > 10 | 36.1 | > 10 | > 10 | > 1000 | > 3000 | 117 | > 10 | 711 | > 10 | > 1000 | > 3000 | 5.63 | 447 | > 10
8 | DG-75 (Burkitt's Lymphoma) | 38.7 | 1.25 | > 1000 | > 10 | 424 | > 300 | 6.98 | > 1000 | > 1 | > 1000 | > 1000 | 8.87 | 1390 | > 10 | 33.5 | > 10 | > 10 | > 1000 | > 3000 | 24.4 | > 10 | > 2000 | > 10 | > 1000 | > 3000 | > 10 | 453 | –
